# Results reported in US9249128B2 (priority 2010, dated 2016).
# Columns and labels:
# PC3 and DU145 cells [1] = test: Invasion assay (Matrigel chambers); assay type: cell-based, human; conditions: for PC3 and DU145 invasion: 10 μM, 4 h in situ
# Description: (§1) Inhibitors were dissolved in DMSO and diluted into media or buffer prior to cell or proteome treatment, respectively. For in vitro treatment, final DMSO concentration was 4%. For in situ treatments of cells for ABPP, lipid measurements, migration, cell-survival, and invasion assays, 2×10^6 cells were seeded in 6 cm dishes (˜100% confluency) 24 h prior to inhibitor pre-treatment (in DMSO at 0.1% final concentration) in serum-free media (3 mL) for the designated time before harvesting cells for ABPP or lipid measurements or before the initiation of migration, cell-survival, and invasion assays.
# (§2) Cell migration, cell survival, and invasion studies were performed as previously described (Nomura et al., 2010). Briefly, migration assays were performed in Transwell chambers (Corning) with 8 μm pore-sized membranes coated with 10 μg/mL collagen at 37° C. for LNCaP (24 h), PC3 (4 h) and DU145 cells (24 h), respectively. Cell survival assays were performed using the Cell Proliferation Reagent WST-1 (Roche) Invasion assays were conducted using the BD Matrigel Invasion Chambers per the manufacturer's protocol. Inhibitors were preincubated for the stated duration before seeding cells into migration, cell-survival, or invasion chambers. Prior to seeding the cells in these chambers, cells were serum-starved for 4 h. Inhibitors were also present during the migration, cell-survival, and invasion assays.
# PC3 and DU145 cells [2] = test: Cell migration assay (Transwell); assay type: cell-based, human; conditions: for PC3 and DU145 migration: 10 μM, 4 h in situ
# Description: as §1, §2
# HSL = biological target: T1, HSL (Mus musculus, UniProt P54310); test: Competitive ABPP of HSL in rosiglitazone-differentiated 3T3-10T1/2 adipocyte proteome; assay type: biochemical
# T1 construct: ABPP analysis of HSL from a rosiglitazone-differentiated 3T3-10T1/2 adipocyte proteome; endogenous in cells; host or cells: rosiglitazone-differentiated 3T3-10T1/2 adipocytes
# T1 sequence (P54310 1-759): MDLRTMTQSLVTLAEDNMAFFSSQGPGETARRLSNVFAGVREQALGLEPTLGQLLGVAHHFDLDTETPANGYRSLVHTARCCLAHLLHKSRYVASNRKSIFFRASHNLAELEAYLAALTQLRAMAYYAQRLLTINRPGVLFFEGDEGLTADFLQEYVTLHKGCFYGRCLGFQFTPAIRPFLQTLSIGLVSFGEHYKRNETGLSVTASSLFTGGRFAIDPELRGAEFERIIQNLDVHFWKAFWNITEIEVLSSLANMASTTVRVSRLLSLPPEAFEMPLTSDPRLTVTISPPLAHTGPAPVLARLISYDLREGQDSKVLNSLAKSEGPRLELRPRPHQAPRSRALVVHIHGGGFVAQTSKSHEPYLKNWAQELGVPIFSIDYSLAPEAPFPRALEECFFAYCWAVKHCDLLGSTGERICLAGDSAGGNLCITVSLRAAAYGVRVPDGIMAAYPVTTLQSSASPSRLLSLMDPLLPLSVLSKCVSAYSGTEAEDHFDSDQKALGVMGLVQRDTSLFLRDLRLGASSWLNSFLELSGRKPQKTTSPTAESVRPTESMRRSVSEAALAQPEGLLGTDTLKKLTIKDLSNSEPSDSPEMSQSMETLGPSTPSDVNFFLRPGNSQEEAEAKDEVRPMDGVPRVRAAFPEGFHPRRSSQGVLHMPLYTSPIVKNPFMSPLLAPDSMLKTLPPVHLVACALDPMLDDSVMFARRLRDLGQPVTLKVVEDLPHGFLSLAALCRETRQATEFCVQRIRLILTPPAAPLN
# Description: (§3) For ABPP experiments, cell lysate and tissue proteomes were treated with 1 μM FP-rhodamine for 30 min at room temperature (50 μL total reaction volume) as described previously (Nomura et al., 2010). Reactions were quenched with one volume of standard 4×SDS/PAGE loading buffer (reducing), separated by SDS/PAGE (10% acrylamide), and visualized in-gel with a Hitachi FMBio IIe flatbed fluorescence scanner (MiraiBio). Inhibitors were preincubated prior (30 min or 4 h at 37° C. in vitro or in situ, respectively) to the addition of FP-rhodamine.
# LNCaP cells = test: Cell survival assay in LNCaP cells; assay type: cell-based, human; conditions: 1 μM, 48 h in situ treatment; cells express low levels of KIAA1363
# Description: as §1, §2
# KIAA1363 = biological target: T2, KIAA1363 (Homo sapiens, UniProt Q6PIU2); test: Competitive ABPP of tumors explanted from treated mice; assay type: in vivo, mouse; design: PC3 cancer cells, which have high endogenous KIAA1363 levels; endogenous in cells; host or cells: PC3 (2-acetyl MAGE assay also DU145 and SKOV3); conditions: 80 mg/kg oral daily; tumors removed 4 hr after final dose (day 33)
# T2 sequence (Q6PIU2 1-408): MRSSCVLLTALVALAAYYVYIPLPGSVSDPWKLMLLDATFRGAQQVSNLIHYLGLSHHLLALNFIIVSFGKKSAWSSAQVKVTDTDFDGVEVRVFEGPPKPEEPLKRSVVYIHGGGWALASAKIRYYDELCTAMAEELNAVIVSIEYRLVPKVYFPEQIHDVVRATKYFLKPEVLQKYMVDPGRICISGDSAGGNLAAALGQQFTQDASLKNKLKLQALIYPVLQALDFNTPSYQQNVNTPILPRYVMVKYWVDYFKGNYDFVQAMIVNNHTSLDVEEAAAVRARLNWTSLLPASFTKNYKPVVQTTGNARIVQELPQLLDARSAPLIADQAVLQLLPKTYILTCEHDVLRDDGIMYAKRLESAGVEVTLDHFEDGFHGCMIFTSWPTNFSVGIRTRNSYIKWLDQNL
# Description: as §3
# Human cancer xenografts were established by transplanting cancer cell lines ectopically into the flank of C.B17 SCID mice (Taconic Farms). Briefly, cells were washed two times with PBS, trypsinized, and harvested in serum-containing medium. Next, the harvested cells were washed two times with serum-free medium and resuspended at a concentration of 2.0×10^4 cells/μL and 100 μL was injected. Growth of the tumors was measured every 3 days with calipers. For chronic JW480 treatment studies, mice were treated with JW480 or vehicle once daily (at approximately the same time everyday) by oral gavage in PEG300 (4 μL/g mouse). The treatments were initiated immediately after ectopic injection of cancer cells.
# [3] = test system: serine hydrolase activities detected in PC3 cells; test: Competitive ABPP-MudPIT of PC3 cells treated in situ; assay type: cell-based, human; conditions: 1 uM in situ treatment, 4 hr; >30 serine hydrolase activities detected in PC3 cells
# Description: as §1
# Competitive ABPP-MudPIT experiments were performed as previously described (Nomura et al., 2010). Briefly, 1 mg of proteome was labeled with 5 μM FP-biotin, followed by solubilization with 1% Triton X-100, denaturation by SDS and heating, avidin precipitation of labeled proteins, and on-bead tryptic digest. Tryptic peptides were then loaded on to a biphasic (strong cation exchange/reverse phase) capillary column and analyzed by two-dimensional liquid chromatography (2D-LC) separation in combination with tandem mass spectrometry using an Agilent 1100 LC system coupled with a ThermoFisher LTQ linear ion trap mass spectrometer. Spectral counts are reported as the average of three samples with the standard error of the mean (SEM).
SMILES,PC3 and DU145 invasion (PC3 and DU145 cells [1]),PC3 and DU145 migration (PC3 and DU145 cells [2]),Cross-reactivity with HSL (HSL),Survival of LNCaP cells (LNCaP cells),KIAA1363 activity in explanted tumors (KIAA1363),"Invasion of PC3 cells (PC3 and DU145 cells [1]; 1 μM, 48 h in situ)","Migration of PC3 cells (PC3 and DU145 cells [2]; 1 μM, 48 h in situ)",Off-target activity across serine hydrolases (ABPP-MudPIT) [3]
"COc1ccc(CNC(=O)Oc2cccc3c2OC(C)(C)C3)cc1 [JW148, 2,2-dimethyl-2,3-dihydrobenzofuran-7-yl 4-methoxybenzylcarbamate]",impair,impair,cross-reactivity,–,–,–,–,–
"CC(C)c1ccccc1OC(=O)NCCc1ccc2ccccc2c1 [JW480, 2-isopropylphenyl (2-(naphthalen-2-yl)ethyl)carbamate]",impair,impair,negligible cross-reactivity,does not affect,completely ablated,reduced,reduced,no off-target activity
